In assay [1] the target is T1, Integrin alpha-V/beta-6 (Homo sapiens, UniProt P06756+P18564). As to the kind of experiment: Inhibition of alpha-V-beta-6 integrin receptor in human 293 cells. In kind it is cell-based, HEK293.
The target of the next assay is Integrin alpha-V/beta-3 (Homo sapiens, UniProt P05106+P06756). As to the kind of experiment: Inhibition of alphaVbeta3 integrin receptor expressed in human 293 cells. Type of assay: cell-based, HEK293.
Assay [2] deals with T1, Integrin alpha-V/beta-6. As to the kind of experiment: Inhibition of alpha-V-beta-6 integrin receptor in human HT29 cells. Type of assay: cell-based, HT-29.

By IC50 is commonly meant the concentration that gives 50% inhibition.

Sequence of Integrin alpha-V/beta-3 (P05106 27-788 limits assumed): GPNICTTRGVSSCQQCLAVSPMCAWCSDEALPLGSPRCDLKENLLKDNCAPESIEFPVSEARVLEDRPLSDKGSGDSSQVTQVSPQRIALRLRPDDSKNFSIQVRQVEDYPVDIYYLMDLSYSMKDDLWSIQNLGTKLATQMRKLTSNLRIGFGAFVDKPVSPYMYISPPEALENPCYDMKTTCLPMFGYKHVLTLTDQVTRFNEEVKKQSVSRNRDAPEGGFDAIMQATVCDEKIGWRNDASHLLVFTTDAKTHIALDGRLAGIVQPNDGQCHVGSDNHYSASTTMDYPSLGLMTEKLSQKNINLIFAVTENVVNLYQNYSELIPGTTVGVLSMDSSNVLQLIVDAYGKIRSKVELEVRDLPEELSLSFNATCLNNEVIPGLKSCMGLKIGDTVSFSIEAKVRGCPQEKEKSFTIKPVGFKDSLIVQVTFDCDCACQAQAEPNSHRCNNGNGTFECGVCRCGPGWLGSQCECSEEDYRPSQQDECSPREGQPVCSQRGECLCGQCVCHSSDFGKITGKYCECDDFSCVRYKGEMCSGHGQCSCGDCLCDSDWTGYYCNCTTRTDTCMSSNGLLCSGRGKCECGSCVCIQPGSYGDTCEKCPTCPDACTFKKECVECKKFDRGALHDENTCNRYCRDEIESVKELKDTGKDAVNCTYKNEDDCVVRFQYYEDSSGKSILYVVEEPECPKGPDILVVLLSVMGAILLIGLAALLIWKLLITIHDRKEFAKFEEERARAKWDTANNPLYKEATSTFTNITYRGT
Sequence of Integrin alpha-V/beta-3 (P06756 31-889 limits assumed): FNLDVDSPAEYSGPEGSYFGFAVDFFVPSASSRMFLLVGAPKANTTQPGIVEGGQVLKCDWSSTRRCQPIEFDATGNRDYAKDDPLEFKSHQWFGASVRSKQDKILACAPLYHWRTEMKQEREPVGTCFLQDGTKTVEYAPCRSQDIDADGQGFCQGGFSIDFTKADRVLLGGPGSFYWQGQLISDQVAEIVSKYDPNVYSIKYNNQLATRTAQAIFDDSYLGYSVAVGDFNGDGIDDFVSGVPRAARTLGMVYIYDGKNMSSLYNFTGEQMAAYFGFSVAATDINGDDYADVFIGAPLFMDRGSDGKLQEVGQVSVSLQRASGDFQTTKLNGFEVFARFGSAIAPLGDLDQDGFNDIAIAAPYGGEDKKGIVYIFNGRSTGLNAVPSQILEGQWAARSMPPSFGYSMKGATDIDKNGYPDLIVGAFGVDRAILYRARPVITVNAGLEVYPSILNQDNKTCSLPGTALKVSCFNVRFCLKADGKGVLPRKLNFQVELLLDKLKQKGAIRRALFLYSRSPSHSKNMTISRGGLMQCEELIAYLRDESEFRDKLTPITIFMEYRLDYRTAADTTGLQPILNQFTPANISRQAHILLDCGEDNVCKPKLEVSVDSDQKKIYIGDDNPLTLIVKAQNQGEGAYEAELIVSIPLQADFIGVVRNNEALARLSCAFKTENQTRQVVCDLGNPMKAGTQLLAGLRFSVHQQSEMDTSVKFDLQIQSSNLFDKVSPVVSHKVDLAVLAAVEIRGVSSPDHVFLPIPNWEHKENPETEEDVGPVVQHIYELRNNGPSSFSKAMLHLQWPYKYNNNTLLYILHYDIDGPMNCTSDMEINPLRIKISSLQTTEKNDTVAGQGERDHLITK
Sequence of Integrin alpha-V/beta-3 (P06756 891-1048 limits assumed): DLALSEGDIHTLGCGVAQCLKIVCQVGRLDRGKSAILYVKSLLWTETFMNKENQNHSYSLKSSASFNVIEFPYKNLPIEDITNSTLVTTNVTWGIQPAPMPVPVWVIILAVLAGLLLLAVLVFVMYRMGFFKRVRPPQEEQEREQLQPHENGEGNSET
T1 sequence (P06756 31-889 limits assumed): as the sequence (P06756 31-889 limits assumed) above
T1 sequence (P06756 891-1048 limits assumed): as the sequence (P06756 891-1048 limits assumed) above
T1 sequence (P18564 22-788 limits assumed): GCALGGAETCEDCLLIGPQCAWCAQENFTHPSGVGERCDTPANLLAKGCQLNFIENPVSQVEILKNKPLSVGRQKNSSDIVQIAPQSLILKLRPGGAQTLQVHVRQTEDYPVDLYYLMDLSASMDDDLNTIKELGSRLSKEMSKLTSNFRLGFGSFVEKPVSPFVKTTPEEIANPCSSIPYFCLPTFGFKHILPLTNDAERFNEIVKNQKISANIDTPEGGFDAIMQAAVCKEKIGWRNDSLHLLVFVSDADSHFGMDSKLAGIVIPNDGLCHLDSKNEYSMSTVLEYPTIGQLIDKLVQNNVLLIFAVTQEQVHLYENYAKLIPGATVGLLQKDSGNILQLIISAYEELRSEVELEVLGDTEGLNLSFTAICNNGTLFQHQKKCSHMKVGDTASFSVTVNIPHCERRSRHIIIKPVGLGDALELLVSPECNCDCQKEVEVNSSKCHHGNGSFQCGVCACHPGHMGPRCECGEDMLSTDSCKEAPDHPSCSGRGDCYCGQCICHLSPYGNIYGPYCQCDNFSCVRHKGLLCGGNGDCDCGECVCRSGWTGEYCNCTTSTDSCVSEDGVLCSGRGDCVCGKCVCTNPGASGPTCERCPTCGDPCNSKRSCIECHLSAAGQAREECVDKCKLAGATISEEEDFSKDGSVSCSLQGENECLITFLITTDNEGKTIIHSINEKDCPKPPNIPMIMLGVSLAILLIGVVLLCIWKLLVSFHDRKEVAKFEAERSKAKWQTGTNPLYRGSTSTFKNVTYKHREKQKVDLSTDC

Take `O=C(O)C[C@@H](NC(=O)CNC(=O)c1cc(O)cc(NC2=NCC(F)CN2)c1)c1cc(Cl)cc(I)c1O` (stereo not given in full): the IC50 at Integrin alpha-V/beta-6 [1] came out at 0.164 µM; against Integrin alpha-V/beta-3, 0.003 µM.

Take `O=C(O)C[C@@H](NC(=O)CNC(=O)c1cc(O)cc(NC2=NCC(F)CN2)c1)c1cc(Br)cc(Br)c1O` (stereo not given in full): the concentration for half-maximal inhibition (IC50) worked out at 3.42 µM at Integrin alpha-V/beta-6 [2] and 0.003 µM against Integrin alpha-V/beta-3.

As to `O=C(O)C[C@@H](NC(=O)CNC(=O)c1cccc(NC2=NCC(F)CN2)c1)c1cc(Br)cc(Cl)c1O` (stereo not given in full), the figures for the concentration for half-maximal inhibition (IC50) against Integrin alpha-V/beta-6 [2] and on Integrin alpha-V/beta-3 were 0.025 µM and 0.002 µM, respectively.

Consider `O=C(O)C[C@@H](NC(=O)CNC(=O)c1cncc(NC2=NCC(O)CN2)c1)c1cc(Cl)cc(Br)c1O` (stereo not given in full), for which the concentration for half-maximal inhibition (IC50) against Integrin alpha-V/beta-6 [1] amounted to 0.615 µM; on Integrin alpha-V/beta-3 it was 0.001 µM.

For `Cc1cc(C)c(O)c([C@@H](CC(=O)O)NC(=O)CNC(=O)c2cc(O)cc(NC3=NCC(O)CN3)c2)c1` (stereo not given in full), the 50% inhibitory concentration (IC50) at Integrin alpha-V/beta-6 [2] turned out to be 0.118 µM; against Integrin alpha-V/beta-3, 0.054 µM.

As to `O=C(O)C[C@@H](NC(=O)CNC(=O)c1cncc(NC2=NCC(F)CN2)c1)c1cc(Cl)cc(Br)c1O` (stereo not given in full), the half-inhibitory concentration (IC50) came to 1.83 µM against Integrin alpha-V/beta-6 [2] and 0.0007 µM at Integrin alpha-V/beta-3.

For the compound `O=C(O)C[C@@H](NC(=O)CNC(=O)c1cc(O)cc(NC2=NCCCN2)c1)c1cc(Cl)cc(Cl)c1O`, the IC50 is 3 µM against Integrin alpha-V/beta-6 [2] and 0.003 µM on Integrin alpha-V/beta-3.

With `O=C(O)C[C@@H](NC(=O)CNC(=O)c1cc(O)cc(NC2=NCC(O)CN2)c1)c1cc(Cl)cc(Br)c1O` (stereo not given in full), the IC50 at Integrin alpha-V/beta-6 [1] amounted to 0.052 µM; at Integrin alpha-V/beta-3, 0.003 µM.

Turning to `O=C(O)C[C@@H](NC(=O)CNC(=O)c1cc(O)cc(NC2=NCC(F)CN2)c1)c1cc(Br)cc(Cl)c1O` (stereo not given in full), the 50% inhibitory concentration (IC50) at Integrin alpha-V/beta-6 [2] came out at 0.071 µM; at Integrin alpha-V/beta-3, 0.003 µM.

In the case of `Cc1cc(C)cc([C@@H](CC(=O)O)NC(=O)CNC(=O)c2cc(O)cc(NC3=NCC(F)CN3)c2)c1` (stereo not given in full), the IC50 against Integrin alpha-V/beta-6 [2] turned out to be 0.049 µM; against Integrin alpha-V/beta-3, 0.056 µM.

For the compound `O=C(O)C[C@@H](NC(=O)CNC(=O)c1cncc(NC2=NCC(O)CN2)c1)c1cc(Br)cc(Br)c1O` (stereo not given in full), the 50% inhibitory concentration (IC50) on Integrin alpha-V/beta-6 [2] was 1.76 µM; against Integrin alpha-V/beta-3 it was 0.002 µM.

With `O=C(O)C[C@@H](NC(=O)CNC(=O)c1cc(O)cc(NC2=NCC(F)CN2)c1)c1cc(Br)cc(I)c1` (stereo not given in full), the IC50 at Integrin alpha-V/beta-6 [2] is 0.011 µM; at Integrin alpha-V/beta-3, 0.013 µM.

For the compound `O=C(O)C[C@@H](NC(=O)CNC(=O)c1cccc(NC2=NCCCN2)c1)c1cc(Br)cc(Br)c1O`, the IC50 worked out at 3.21 µM against Integrin alpha-V/beta-6 [2] and 0.004 µM on Integrin alpha-V/beta-3.

With `O=C(O)C[C@@H](NC(=O)CNC(=O)c1cc(O)cc(NC2=NCC(F)CN2)c1)c1cc(Cl)cc(Br)c1` (stereo not given in full), the IC50 against Integrin alpha-V/beta-6 [2] worked out at 0.057 µM; against Integrin alpha-V/beta-3, 0.005 µM.

Take `O=C(O)C[C@@H](NC(=O)CNC(=O)c1cc(O)cc(NC2=NCC(O)CN2)c1)c1cc(Cl)cc(Cl)c1O` (stereo not given in full): the IC50 worked out at 0.064 µM at Integrin alpha-V/beta-6 [1] and 0.003 µM at Integrin alpha-V/beta-3.

Take `O=C(O)C[C@@H](NC(=O)CNC(=O)c1cccc(NC2=NCC(O)CN2)c1)c1cc(Cl)cc(Br)c1O` (stereo not given in full): the IC50 against Integrin alpha-V/beta-6 [2] was 3.53 µM; against Integrin alpha-V/beta-3 it was 0.005 µM.

As to `Nc1cc(NC2=NCC(O)CN2)cc(C(=O)NCC(=O)N[C@H](CC(=O)O)c2cc(Br)cc(Cl)c2O)c1` (stereo not given in full), the values for the half-inhibitory concentration (IC50) at Integrin alpha-V/beta-6 [2] and against Integrin alpha-V/beta-3 were 0.216 µM and 0.033 µM, respectively.

As for `O=C(O)C[C@@H](NC(=O)CNC(=O)c1cccc(NC2=NCC(O)CN2)c1)c1cc(Cl)cc(I)c1O` (stereo not given in full), the concentration for half-maximal inhibition (IC50) on Integrin alpha-V/beta-6 [2] amounted to 11.5 µM; against Integrin alpha-V/beta-3, 0.001 µM.

For the compound `O=C(O)C[C@@H](NC(=O)CNC(=O)c1cc(O)cc(NC2=NCC(F)CN2)c1)c1cc(Br)cc(Br)c1` (stereo not given in full), the values for the 50% inhibitory concentration (IC50) on Integrin alpha-V/beta-6 [2] and on Integrin alpha-V/beta-3 were 0.02 µM and 0.005 µM, respectively.

Regarding `O=C(O)C[C@@H](NC(=O)CNC(=O)c1cccc(NC2=NCC(O)CN2)c1)c1cc(Cl)cc(Cl)c1O` (stereo not given in full), the IC50 against Integrin alpha-V/beta-6 [1] is 0.02 µM; against Integrin alpha-V/beta-3, 0.0007 µM.

These data come from ChEMBL document CHEMBL1147945, “R-isomers of Arg-Gly-Asp (RGD) mimics as potent alphavbeta3 inhibitors” (Bioorg Med Chem, 2007).
